Our source for the IC50 values is US8193189B2, “Quinoxaline derivatives as tyrosine kinase activity inhibitors” (Novartis AG, priority 2007, dated 2012).

Assay [1] concerns JAK/STAT pathway (JAK1/JAK2-dependent nuclear translocation of STAT1-GFP). Description: Inhibition of the JAK/STAT pathway: IFN-γ stimulated nuclear translocation of STAT1-GFP in HT1080 fibrosarcoma cells. As to conditions: Homo sapiens, HT-1080; HT1080 STAT1-GFP cells, 100 ng/ml IFN-γ 2 hours, compound added 30 min before; read-out: STAT1translo IC50. The assay is classed as cell-based. From the text:
The medium-throughput (96-well format), robust and reproducible cellular assay can be routinely used to assess the functional activation of Janus Kinases (JAKs), based on the nuclear translocation of their substrate, Signal Transducer and Activator of Transcription (STAT). Nuclear translocation can be monitored in HT1080 fibrosarcoma cells stably transfected with STAT1 fused to Green Fluorescence Protein (GFP). Stimulation with interferon-γ (IFN-γ) results in JAK1/JAK2-dependent nuclear translocation of STAT1-GFP that can be quantified using the Cellomics Cyto/NucTrans software package. This assay may be used to provide an assessment of the nuclear-cytoplasmic differential (NCD) of GFP-STAT1 using Hoechst dye to define the boundaries of the nucleus.
Compounds can be dissolved in DMSO to a final stock concentration of 10 mM and stored as aliquots at 4° C. Compounds may be pre-diluted in 100% DMSO at 10 mM, 3 mM 1 mM, 0.3 mM, 0.1 mM, 0.03 mM, 0.01 mM and 0.003 mM. Subsequently, compounds may be diluted in medium and added in 50 μl to the cells. The final compound concentrations tested may be 10 μM, 3 μM 1 μM, 0.3 μM, 0.1 μM, 0.03 μM, 0.01 μM and 0.003 μM and the final DMSO concentration can be 0.1%.
The plates may then be washed once in PBS, and 200 μl PBS finally added per well. The plates, being finally covered with a black adhesive, may be either read directly or stored at 4° C. for later imaging. Where appropriate, the compounds may be added 30 min before stimulation with IFN-γ.
The plates can be read on a Cellomics® ArrayscanII automated fluorescence microscope plate reader equipped with a Mercury-Xenon white light illumination source and a Zeiss Axiovert inverted microscope, using the XF100 dichroic/emission filter cube and matching excitation filters, 10× magnification, and a 0.3 numerical aperture objective. Image acquisition and analysis can be performed using a customized protocol based on the ‘NuclearTranslocation’ Bioapplication (for details, see Appendices). For each well, multiple images (fields) can be acquired until a minimum of 1000 cells are counted using two 2 channels: Channel 1 (Hoechst)=focus+nuclear mask, Channel 2 (GFP)=signal quantification in mask areas as outlined below.
Nuclei may be first identified based on the Hoechst staining and a mask generated for each nucleus that then serves as a template to generate a circle (eroded inwards by 1 pixel) and a 3 pixel-wide collar-like ring (off-set outwards by 1 pixel), in which the nuclear and cytoplasmic intensity of GFP, respectively, are quantified in the corresponding channel. High content analysis yields numerous measurements per cell and the GPF intensity differential between the nuclear and the cytoplasmic masks may be chosen as a measure of sub-cellular GFP-STAT1 relocation. The resulting values may be averaged for all cells in the well to return a single measurement plus standard deviation.

A further assay addresses T1, GST-JAK3(811-1124) (Homo sapiens, UniProt P52333).
T1 construct: GST-JAK3(811-1124); made in house
Description: EPK JAK-family kinases profiling assay (Caliper mobility shift), JAK3. It is filed as biochemical. As to conditions: ATP 80 μM, 6 nM kinase. In a few lines:
(§1)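 Turnover was read as substrate/product ratio after mobility-shift capillary-like separation of each reaction, run for 60 min at 30 °C with GST-tagged kinase domain, labelled peptide and ATP, and terminated with EDTA stop buffer.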

In a further assay the target is T2, GST-JAK2(808-1132) (Homo sapiens, UniProt O60674).
T2 construct: GST-JAK2(808-1132); purchased Invitrogen (Carlsbad, USA) #4288
Description: EPK JAK-family kinases profiling assay (Caliper mobility shift), JAK2. It is filed as biochemical. As to conditions: ATP 20 μM, 1.8 nM kinase. The essentials: as §1

The target of the next assay is T3, GST-JAK1(866-1154) (Homo sapiens, UniProt P23458).
T3 construct: GST-JAK1(866-1154); made in house
Put plainly: EPK JAK-family kinases profiling assay (Caliper mobility shift), JAK1. To be noted: ATP 40 μM, 50 nM kinase. It is filed as biochemical. In a few lines: as §1

The IC50 is the concentration at which inhibition is half-maximal.

T2 sequence (O60674 808-1132): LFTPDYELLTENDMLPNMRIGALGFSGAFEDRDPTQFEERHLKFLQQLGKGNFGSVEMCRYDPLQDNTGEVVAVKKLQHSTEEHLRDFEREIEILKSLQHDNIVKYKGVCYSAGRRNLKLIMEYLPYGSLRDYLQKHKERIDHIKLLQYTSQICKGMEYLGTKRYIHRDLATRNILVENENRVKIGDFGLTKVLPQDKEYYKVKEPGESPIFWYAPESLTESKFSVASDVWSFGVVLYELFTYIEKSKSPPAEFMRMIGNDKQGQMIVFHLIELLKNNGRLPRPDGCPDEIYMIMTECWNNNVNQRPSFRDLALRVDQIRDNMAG
T1 sequence (P52333 811-1124): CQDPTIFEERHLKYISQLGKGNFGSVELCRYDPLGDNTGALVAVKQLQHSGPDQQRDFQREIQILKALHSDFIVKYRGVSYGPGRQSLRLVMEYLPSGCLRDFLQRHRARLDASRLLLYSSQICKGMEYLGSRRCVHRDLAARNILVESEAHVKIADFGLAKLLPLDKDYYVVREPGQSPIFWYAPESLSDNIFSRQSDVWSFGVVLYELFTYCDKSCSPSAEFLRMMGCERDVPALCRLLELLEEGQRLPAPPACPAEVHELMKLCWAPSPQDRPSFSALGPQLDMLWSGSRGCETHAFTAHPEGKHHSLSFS
T3 sequence (P23458 866-1154): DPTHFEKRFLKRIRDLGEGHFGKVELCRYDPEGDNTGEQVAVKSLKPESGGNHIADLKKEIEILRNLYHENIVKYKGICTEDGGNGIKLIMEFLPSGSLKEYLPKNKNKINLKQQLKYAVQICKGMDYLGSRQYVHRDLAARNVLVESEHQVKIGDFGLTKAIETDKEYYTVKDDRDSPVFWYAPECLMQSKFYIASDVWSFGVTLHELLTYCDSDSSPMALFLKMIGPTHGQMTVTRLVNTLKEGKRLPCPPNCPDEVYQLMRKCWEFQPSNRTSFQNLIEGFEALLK

Regarding `COCCOc1ccc(-c2cnc3cccc(-c4ccc(CN5CCS(=O)(=O)CC5)c(F)c4)c3n2)cc1OC` [Example 48, 8-[4-(1,1-Dioxido-thiomorpholin-4-ylmethyl)-3-fluoro-phenyl]-2-[3-methoxy-4-(2-methoxy-ethoxy)-phenyl]-quinoxaline], the IC50 in assay [1] was 150 nM; at GST-JAK3(811-1124), 77 nM; on GST-JAK2(808-1132), below 3 nM; on GST-JAK1(866-1154) it was 9.9 nM.
Taken in the same sequence, the figures for `COc1cc(-c2cnc3cccc(-c4ccc(C(=O)N5CCOCC5)c(Cl)c4)c3n2)cc(OC)c1OC` [Example 18, {2-Chloro-4-[3-(3,4,5-trimethoxy-phenyl)-quinoxalin-5-yl]-phenyl}-morpholin-4-yl-methanone] were 340 nM, 2300 nM, 38 nM and 230 nM.
Taken in the same sequence, the figures for `Cc1cc(-c2cnc3cccc(-c4ccc(CN5CCS(=O)(=O)CC5)c(Cl)c4)c3n2)ccc1C(=O)N1CCCC1` [Example 67, (4-{8-[3-Chloro-4-(1,1-dioxido-thiomorpholin-4-ylmethyl)-phenyl]-quinoxalin-2-yl}-2-methyl-phenyl)-pyrrolidin-1-yl-methanone] were 475 nM, 405 nM, below 3 nM and 96.5 nM.
Taken in the same sequence, the figures for `Cc1cc(-c2cnc3cccc(-c4ccc(CN5CCOCC5)c(C(F)(F)F)c4)c3n2)ccc1C(=O)N(C)C` [Example 55, 2,N,N-Trimethyl-4-[8-(4-morpholin-4-ylmethyl-3-trifluoromethyl-phenyl)-quinoxalin-2-yl]-benzamide] were 3140 nM, 4200 nM, 90 nM and 1700 nM.
As for `CCN1CCN(C(=O)c2ccc(-c3cnc4cccc(-c5ccc(C(C)(C)N6CCS(=O)(=O)CC6)c(C)c5)c4n3)cc2C)CC1` [Example 81, [4-(8-{4-[1-(1,1-Dioxido-thiomorpholin-4-yl)-1-methyl-ethyl]-3-methyl-phenyl}-quinoxalin-2-yl)-2-methyl-phenyl]-(4-ethyl-piperazin-1-yl)-methanone], the IC50 came out at 389 nM in assay [1], 780 nM at GST-JAK3(811-1124), 16.5 nM on GST-JAK2(808-1132) and 1150 nM on GST-JAK1(866-1154).
For the compound `Cc1cc(-c2cnc3cccc(-c4ccc(CN5CCS(=O)(=O)CC5)c(F)c4)c3n2)ccc1C(=O)N1CCOCC1` [Example 62, (4-{8-[4-(1,1-Dioxido-thiomorpholin-4-ylmethyl)-3-fluoro-phenyl]-quinoxalin-2-yl}-2-methyl-phenyl)-morpholin-4-yl-methanone], the IC50 in assay [1] amounted to 82 nM; on GST-JAK3(811-1124) it was 330 nM; on GST-JAK2(808-1132), 5.7 nM; on GST-JAK1(866-1154), 44.5 nM.
Taken in the same sequence, the figures for `CCN1CCN(C(=O)c2ccc(-c3cnc4cccc(-c5cc(F)c(CN6CCOCC6)c(F)c5)c4n3)cc2C)CC1` [Example 82, {4-[8-(3,5-Difluoro-4-morpholin-4-ylmethyl-phenyl)-quinoxalin-2-yl]-2-methyl-phenyl}-(4-ethyl-piperazin-1-yl)-methanone] were 946 nM, 1250 nM, 14 nM and 490 nM.
Taken in the same sequence, the figures for `O=C(c1ccc(-c2cccc3ncc(-c4ccc(OCCCN5CCOCC5)cc4)nc23)cc1F)N1CCS(=O)(=O)CC1` [Example 73, (1,1-Dioxido-thiomorpholin-4-yl)-(2-fluoro-4-{3-[4-(3-morpholin-4-yl-propoxy)-phenyl]-quinoxalin-5-yl}-phenyl)-methanone] were above 10000 nM, 370 nM, 28 nM and 190 nM.
Taken in the same sequence, the figures for `Cc1cc(-c2cccc3ncc(-c4ccc(N5CCOCC5)cc4)nc23)ccc1C(=O)N1CCOCC1` [Example 46, {2-Methyl-4-[3-(4-morpholin-4-yl-phenyl)-quinoxalin-5-yl]-phenyl}-morpholin-4-yl-methanone] were 2820 nM, 1600 nM, 20 nM and 110 nM.
With `CCOc1ccc(-c2cnc3cccc(-c4ccc(CN5CCS(=O)(=O)CC5)c(C)c4)c3n2)cc1OCC` [Example 32, 2-(3,4-Diethoxy-phenyl)-8-[4-(1,1-dioxido-thiomorpholin-4-ylmethyl)-3-methyl-phenyl]-quinoxaline], the 50% inhibitory concentration (IC50) in assay [1] was 7790 nM; on GST-JAK3(811-1124), 2700 nM; at GST-JAK2(808-1132), 84 nM; on GST-JAK1(866-1154), 570 nM.
`Cc1cc(-c2cnc3cccc(-c4cc(F)c(CN5CCOCC5)c(F)c4)c3n2)ccc1C(=O)N1CCCC1` [Example 66, {4-[8-(3,5-Difluoro-4-morpholin-4-ylmethyl-phenyl)-quinoxalin-2-yl]-2-methyl-phenyl}-pyrrolidin-1-yl-methanone]: the IC50 in assay [1] was 1000 nM; on GST-JAK3(811-1124), 250 nM; on GST-JAK2(808-1132) it was 6.05 nM; on GST-JAK1(866-1154), 140 nM.
Taken in the same sequence, the figures for `Cc1cc(-c2cnc3cccc(-c4cc(F)c(CN5CCOCC5)c(F)c4)c3n2)ccc1C(=O)N1CCOCC1` [Example 59, {4-[8-(3,5-Difluoro-4-morpholin-4-ylmethyl-phenyl)-quinoxalin-2-yl]-2-methyl-phenyl}-morpholin-4-yl-methanone] were 635 nM, 1950 nM, 20 nM and 520 nM.
Taken in the same sequence, the figures for `Cc1cc(-c2cnc3cccc(-c4ccc(CC(=O)N5CCS(=O)(=O)CC5)c(F)c4)c3n2)ccc1CN1CCOCC1` [Example 69, 1-(1,1-Dioxido-thiomorpholin-4-yl)-2-{2-fluoro-4-[3-(3-methyl-4-morpholin-4-ylmethyl-phenyl)-quinoxalin-5-yl]-phenyl}-ethanone] were 530 nM, 890 nM, 6.7 nM and 75 nM.
For the compound `Cc1cc(-c2cnc3cccc(-c4ccc(CN5CCS(=O)(=O)CC5)cc4)c3n2)ccc1C(=O)N1CCN(C)CC1` [Example 40, (4-{8-[4-(1,1-Dioxido-thiomorpholin-4-ylmethyl)-phenyl]-quinoxalin-2-yl}-2-methyl-phenyl)-(4-methyl-piperazin-1-yl)-methanone], the IC50 turned out to be 160 nM in assay [1], 627 nM on GST-JAK3(811-1124), 7.3 nM at GST-JAK2(808-1132) and 78.4 nM on GST-JAK1(866-1154).
Taken in the same sequence, the figures for `Cc1cc(-c2cnc3cccc(-c4ccc(CC(=O)N5CCOCC5)cc4)c3n2)ccc1C(=O)N1CCN(C)CC1` [Example 41, 2-(4-{3-[3-Methyl-4-(4-methyl-piperazine-1-carbonyl)-phenyl]-quinoxalin-5-yl}-phenyl)-1-morpholin-4-yl-ethanone] were 346 nM, 640 nM, 6.3 nM and 130 nM.
On to `O=C(c1ccc(-c2cccc3ncc(-c4ccc(OCCCN5CCOCC5)cc4)nc23)cc1F)N1CCOCC1` [Example 75, (2-Fluoro-4-{3-[4-(3-morpholin-4-yl-propoxy)-phenyl]-quinoxalin-5-yl}-phenyl)-morpholin-4-yl-methanone], for which the IC50 is above 10000 nM in assay [1], 1700 nM at GST-JAK3(811-1124), 34 nM at GST-JAK2(808-1132) and 410 nM on GST-JAK1(866-1154).
